Results taken from patent US6936726B2, “Flavanol and cysteamine conjugates” (Consejo Superior de Investigaciones Cientificas, priority 2000, dated 2005).

Assay: DPPH (1,1-diphenyl-2-picrylhydracil) antioxidant/antiradical power assay
Conditions: initial DPPH• around 60 μM; absorbance at 517 nm; calculated from the curves of FIG. 3
Method: FIG. 3. Antioxidant efficacy of phenolic compounds in the DPPH assay. The absorbance (A) at 517 nm is a measure of the amount of free radical remaining in solution. (1−A/A0)×100 represents the percentage of DPPH that has reacted with the antioxidant. The amount of antioxidant expressed as micromoles per micromole of initial DPPH• to correct the possible day to day variation in the amount of initial DPPH• The initial concentration of DPPH• is calculated from the absorbance (A) and a calibration line. Each point represents the mean of three determinations.
The new molecules are potent antioxidants with an excellent capacity to capture free radicals. The conjugates are more efficient than Trolox (water-soluble analogue of Vitamin E) in the DPPH assay (1,1-diphenyl-2-picrylhydracil) [Brand-Williams, W., Cuvelier, M. E., Berset, C., Lebensm.-Wiss. u.-Technol., 28, 25-30 (1995)]. The conjugates are also more efficient than the corresponding non-derived species.
The new pure products are strong antioxidants/capturers of free radicals. FIG. 3 presents the results of the DPPH test (1,1-diphenyl-2-pycrylhydracil). The values of EC50 (effective concentration 50) are calculated from the curves. EC50 is the amount of antioxidant required to reduce the initial concentration to half (around 60 μM) of DPPH•. This amount is expressed as micromoles antioxidant/micromoles initial DPPH•. The EC50 values for compounds relevant to the present invention are: Trolox (water-soluble analogue of Vitamin E), 0.26; (−)-epicatechine, 0.19, 4ξ-(2-aminoethylthio)epicatechine I, 0.11; 4ξ-(2-aminoethylthio)epicatechinegalate III, 0.11.

Molecule | EC50 (amount of antioxidant required to reduce the initial concentration of DPPH• to half)
NCCSC1c2c(O)cc(O)cc2O[C@H](c2ccc(O)c(O)c2)[C@H]1O (stereo partly shown) [I, 4ξ-(2-aminoethylthio)epicatechine] | 0.11 micromoles antioxidant/micromoles initial DPPH•
NCCSC1c2c(O)cc(O)cc2O[C@H](c2ccc(O)c(O)c2)[C@H]1OC(=O)c1cc(O)c(O)c(O)c1 (stereo partly shown) [III, 4ξ-(2-aminoethylthio)epicatechinegalate] | 0.11 micromoles antioxidant/micromoles initial DPPH•
Cc1c(C)c2c(c(C)c1O)CCC(C)(C(=O)O)O2 (stereo not shown) [Trolox] | 0.26 micromoles antioxidant/micromoles initial DPPH•
(−)-epicatechine | 0.19 micromoles antioxidant/micromoles initial DPPH•
